Strand notation (5' to 3'): a small letter for the sugar, then the base; units joined by * are phosphorothioate-linked, units joined directly phosphodiester-linked; [ ] holds rarer units or linkages, { } end groups; capitals alone tell only the bases. e = 2'-O-(2-methoxyethyl) (MOE); [5mC] = 5-methylcytosine; d = 2'-deoxy (DNA)
Tested on: human SMAD7 mRNA
Experiment: Antisense inhibition of human SMAD7 mRNA expression in Hep3B cells by 5-10-5 MOE gapmers, single concentration, electroporation, RT-PCR (Example 1, Study 1 and 2)
Format: cell-based
Conditions: Study 2, electroporation with 15,000 nM antisense oligonucleotide, 5-10-5 MOE gapmers targeting SEQ ID NO: 1 and 2
In short: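 Hep3B cells (20,000/well) electroporated with 5-10-5 MOE gapmer at 5,000 nM or 15,000 nM for approximately 24 h. SMAD7 mRNA quantified by real-time PCR with primer probe set RTS5062 and normalized to RIBOGREEN total RNA. Values are percent inhibition relative to untreated controls.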

Substance	% inhibition of SMAD7 mRNA expression	% Inhibition
771548 (antisense eG*eG*eT*eG*eT*d[5mC]*d[5mC]*dT*dG*d[5mC]*d[5mC]*dG*dA*dT*d[5mC]*eA*eT*eA*e[5mC]*e[5mC]) [compound 771548]	19%	
771798 (antisense eG*eA*e[5mC]*eA*e[5mC]*dA*dT*d[5mC]*d[5mC]*dA*dT*dG*dT*d[5mC]*d[5mC]*eA*eA*eG*e[5mC]*eA) [compound 771798]		17%
771884 (antisense e[5mC]*eT*eG*e[5mC]*e[5mC]*dA*d[5mC]*d[5mC]*d[5mC]*dT*dG*dA*dG*dA*dG*eT*eG*eT*eA*eG) [compound 771884]		3%
771870 (antisense eA*eG*eG*e[5mC]*eA*d[5mC]*dA*dA*dG*dT*d[5mC]*dA*dA*dG*dG*eA*eG*eG*e[5mC]*e[5mC]) [compound 771870]		15%
771559 (antisense eA*eA*eG*eT*eG*dA*dA*dA*dT*dG*dA*dT*dG*dA*d[5mC]*e[5mC]*eG*e[5mC]*e[5mC]*e[5mC]) [compound 771559]	49%	
771612 (antisense eT*e[5mC]*e[5mC]*eG*eG*dG*dA*dA*dA*dA*dA*d[5mC]*d[5mC]*dT*dG*eA*eT*eG*eT*e[5mC]) [compound 771612]	3%	
771868 (antisense eG*eG*eA*eG*eG*d[5mC]*dA*dA*dA*dT*dT*d[5mC]*dA*dT*dA*eG*eA*e[5mC]*eA*eG) [compound 771868]		16%
771723 (antisense e[5mC]*e[5mC]*eA*eA*eG*dG*dT*dT*dA*d[5mC]*dA*dT*dA*d[5mC]*dA*eA*e[5mC]*e[5mC]*eT*eG) [compound 771723]		44%
771756 (antisense e[5mC]*e[5mC]*eA*eG*eG*d[5mC]*dA*dA*d[5mC]*d[5mC]*d[5mC]*d[5mC]*dA*dG*dA*e[5mC]*e[5mC]*eT*eG*e[5mC]) [compound 771756]		11%
483665 (antisense eG*e[5mC]*eG*eA*eA*d[5mC]*dA*dT*dG*dA*d[5mC]*d[5mC]*dT*d[5mC]*d[5mC]*eG*e[5mC]*eA*e[5mC]*eA) [compound 483665]		55%
771639 (antisense e[5mC]*eA*eG*e[5mC]*e[5mC]*dT*dA*dG*dG*dA*dT*dG*dG*dT*dA*e[5mC]*e[5mC]*eT*eT*eG) [compound 771639]	51%	
771511 (antisense eT*eT*eT*eG*eA*dA*dG*dT*dG*dT*dG*dG*d[5mC]*d[5mC]*dT*eG*e[5mC]*eT*e[5mC]*eA) [compound 771511]	31%	
771402 (antisense e[5mC]*eA*eG*eG*e[5mC]*dG*d[5mC]*dA*dG*dG*d[5mC]*dG*dA*d[5mC]*dA*eG*e[5mC]*eA*eG*e[5mC]) [compound 771402]		31%
771950 (antisense eA*eT*eG*e[5mC]*eA*dA*dA*dG*dG*dG*dA*d[5mC]*d[5mC]*d[5mC]*dT*eT*eA*eA*eT*eA) [compound 771950]		0%
771740 (antisense eG*e[5mC]*e[5mC]*eA*e[5mC]*dT*d[5mC]*d[5mC]*dT*dG*dA*d[5mC]*dT*d[5mC]*dA*e[5mC]*eG*e[5mC]*eA*eA) [compound 771740]		20%
771771 (antisense e[5mC]*eA*eG*e[5mC]*eT*d[5mC]*d[5mC]*dT*dA*d[5mC]*dT*dG*dT*dT*dG*eG*e[5mC]*eA*eG*eT) [compound 771771]		22%
771943 (antisense eG*eT*eA*eT*eT*dT*dG*dT*dT*dA*dA*d[5mC]*dA*dA*dA*eA*eA*eT*eG*eG) [compound 771943]		0%
771654 (antisense eA*eA*eA*e[5mC]*eA*dT*dG*d[5mC]*dT*d[5mC]*dA*dT*dT*dG*dA*eG*e[5mC]*eT*eA*eA) [compound 771654]	32%	

Same assay, conditions: electroporation with 15,000 nM antisense oligonucleotide (Study 2), 5-10-5 MOE gapmers targeting SEQ ID NO: 1 and 2

Substance	% Inhibition of SMAD7 mRNA	% inhibition of SMAD7 mRNA expression
771473 (antisense eA*eG*e[5mC]*e[5mC]*eG*dA*dT*dT*dT*dT*dG*d[5mC]*dT*d[5mC]*d[5mC]*eG*e[5mC]*eA*e[5mC]*e[5mC]) [compound 771473]	37%	
771592 (antisense e[5mC]*eT*eG*e[5mC]*eT*d[5mC]*dA*dG*dA*dA*dG*d[5mC]*d[5mC]*dT*dG*eT*eG*eG*eA*e[5mC]) [compound 771592]	16%	
771680 (antisense eA*eT*eT*eT*eA*dT*dA*dT*dT*dA*dA*dA*dG*d[5mC]*dA*eA*eA*eG*eT*eG) [compound 771680]	0%	0%
771665 (antisense eA*eA*eT*eG*e[5mC]*dT*dA*dA*dA*dT*dT*dT*d[5mC]*d[5mC]*dA*eA*eT*eG*eA*eG) [compound 771665]		24%

Same assay, conditions: electroporation, 5,000 nM, approximately 24 hours, relative to untreated control cells, gapmers targeting SEQ ID NO: 1 and 2

Substance	% inhibition of SMAD7 mRNA expression
771723 (antisense e[5mC]*e[5mC]*eA*eA*eG*dG*dT*dT*dA*d[5mC]*dA*dT*dA*d[5mC]*dA*eA*e[5mC]*e[5mC]*eT*eG) [compound 771723]	0%
483665 (antisense eG*e[5mC]*eG*eA*eA*d[5mC]*dA*dT*dG*dA*d[5mC]*d[5mC]*dT*d[5mC]*d[5mC]*eG*e[5mC]*eA*e[5mC]*eA) [compound 483665]	10%
771771 (antisense e[5mC]*eA*eG*e[5mC]*eT*d[5mC]*d[5mC]*dT*dA*d[5mC]*dT*dG*dT*dT*dG*eG*e[5mC]*eA*eG*eT) [compound 771771]	63%

Same assay, conditions: electroporation, 15,000 nM antisense oligonucleotide (Study 2), 5-10-5 MOE gapmers targeting SEQ ID NO: 1 and 2

Substance	% inhibition of SMAD7 mRNA expression
771450 (antisense e[5mC]*eT*eA*eG*eT*dT*d[5mC]*dG*d[5mC]*dA*dG*dA*dG*dT*d[5mC]*eG*eG*e[5mC]*eT*eA) [compound 771450]	45%
771882 (antisense eG*e[5mC]*eA*eT*e[5mC]*dA*dT*dG*dA*dA*dA*dA*dT*d[5mC]*dT*eT*eA*eA*eT*eA) [compound 771882]	35%
771491 (antisense eG*eG*e[5mC]*e[5mC]*e[5mC]*d[5mC]*dA*dG*d[5mC]*d[5mC]*d[5mC]*dT*dT*d[5mC]*dA*e[5mC]*eA*eA*eA*eG) [compound 771491]	39%
771473 (antisense eA*eG*e[5mC]*e[5mC]*eG*dA*dT*dT*dT*dT*dG*d[5mC]*dT*d[5mC]*d[5mC]*eG*e[5mC]*eA*e[5mC]*e[5mC]) [compound 771473]	9%
771554 (antisense eT*eT*eT*eG*eG*dT*dG*dG*dT*dG*d[5mC]*dT*dT*dG*dG*eA*eT*eT*eT*e[5mC]) [compound 771554]	20%
771938 (antisense e[5mC]*e[5mC]*eT*eT*e[5mC]*d[5mC]*d[5mC]*dA*dA*dA*dT*dG*d[5mC]*d[5mC]*dT*eG*e[5mC]*e[5mC]*e[5mC]*e[5mC]) [compound 771938]	29%
771475 (antisense e[5mC]*eG*eT*e[5mC]*eA*dG*d[5mC]*dT*dG*dG*dA*dT*dG*d[5mC]*d[5mC]*eG*e[5mC]*eA*eG*e[5mC]) [compound 771475]	26%
771348 (antisense eG*eG*e[5mC]*e[5mC]*eA*d[5mC]*dG*dA*d[5mC]*dA*dG*dT*dA*dT*d[5mC]*eT*eG*eG*eG*e[5mC]) [compound 771348]	42%
771865 (antisense eA*eT*eA*eG*eG*dG*dA*dT*dA*dT*d[5mC]*dT*d[5mC]*dA*dT*e[5mC]*eA*eA*eT*eA) [compound 771865]	38%
771592 (antisense e[5mC]*eT*eG*e[5mC]*eT*d[5mC]*dA*dG*dA*dA*dG*d[5mC]*d[5mC]*dT*dG*eT*eG*eG*eA*e[5mC]) [compound 771592]	0%
771466 (antisense eA*eA*eG*eA*eT*dA*dT*d[5mC]*d[5mC]*dA*dG*dA*dG*dA*dG*eG*eG*e[5mC]*eT*e[5mC]) [compound 771466]	38%
771905 (antisense eT*eA*eG*eG*e[5mC]*dG*dA*dA*dT*d[5mC]*d[5mC]*d[5mC]*dT*d[5mC]*d[5mC]*e[5mC]*e[5mC]*e[5mC]*eA*eA) [compound 771905]	0%
771889 (antisense eT*eA*eA*eG*eA*dG*d[5mC]*dA*dT*dT*dT*dA*dT*d[5mC]*dT*e[5mC]*eG*e[5mC]*e[5mC]*eA) [compound 771889]	29%
771761 (antisense e[5mC]*e[5mC]*e[5mC]*e[5mC]*eA*dT*dT*d[5mC]*d[5mC]*dT*d[5mC]*d[5mC]*dA*dG*dT*e[5mC]*eT*eT*eT*eA) [compound 771761]	33%
771521 (antisense e[5mC]*eA*eT*eG*eA*dA*dA*dA*dG*d[5mC]*dA*dA*dG*d[5mC]*dA*e[5mC]*eT*e[5mC]*eA*eG) [compound 771521]	33%
771690 (antisense e[5mC]*e[5mC]*eT*eA*eG*dT*dT*d[5mC]*dG*d[5mC]*dA*dG*dA*dG*dT*e[5mC]*eG*eG*e[5mC]*eT) [compound 771690]	43%
771697 (antisense e[5mC]*eA*e[5mC]*eT*e[5mC]*dT*d[5mC]*d[5mC]*d[5mC]*dA*dG*dG*dA*dG*dG*eG*eT*eA*eT*eG) [compound 771697]	5%

Same assay, conditions: electroporation, 15,000 nM, approximately 24 hours, gapmers targeting SEQ ID NO: 3 and 4

Substance	% inhibition of SMAD7 mRNA expression
771342 (antisense eT*e[5mC]*eA*eG*eT*dT*dG*dG*dT*dT*dT*dG*dA*dG*dA*eA*eA*eA*eT*e[5mC]) [compound 771342]	35%

Same assay, conditions: electroporation, 15,000 nM, approximately 24 hours, relative to untreated control cells, gapmers targeting SEQ ID NO: 1 and 2

Substance	% inhibition of SMAD7 mRNA expression
771525 (antisense eT*eT*eT*eG*e[5mC]*dA*dT*dG*dA*dA*dA*dA*dG*d[5mC]*dA*eA*eG*e[5mC]*eA*e[5mC]) [compound 771525]	28%
771494 (antisense e[5mC]*eA*eG*e[5mC]*eA*d[5mC]*dG*dG*dG*d[5mC]*dA*dG*d[5mC]*dT*dG*e[5mC]*eT*eG*eA*eT) [compound 771494]	20%
771629 (antisense eA*eG*e[5mC]*eA*eT*dG*dT*d[5mC]*d[5mC]*d[5mC]*dT*d[5mC]*d[5mC]*d[5mC]*dA*eG*eG*eG*eA*e[5mC]) [compound 771629]	25%
771829 (antisense eT*eG*eT*eG*e[5mC]*d[5mC]*dT*d[5mC]*dA*dG*d[5mC]*dA*dG*dT*dT*eA*eA*eT*eA*eA) [compound 771829]	14%
771360 (antisense eA*e[5mC]*e[5mC]*eT*eT*dG*dT*d[5mC]*dA*d[5mC]*d[5mC]*d[5mC]*dG*dT*d[5mC]*eT*eG*eG*eG*e[5mC]) [compound 771360]	49%

Source: patent US10517889B2, “Modulators of SMAD7 expression” (Ionis Pharmaceuticals, Inc., priority 2017, dated 2019)
